Source: the NIST ThermoML archive (doi:10.1021/je700055p)

Assay: relative permittivity at various frequencies (dimensionless); xn = mol fraction of the nth substance listed
Details: 101.3 kPa, Liquid, Frequency=1 MHz, Coaxial cylinder capacitor

CC#N [acetonitrile] + O
relative permittivity
Details	288.15 K	293.15 K	298.15 K	303.15 K	308.15 K	313.15 K	318.15 K	323.15 K	328.15 K	333.15 K
x1 = 0.0465	78.61	76.8	74.92	73.36	71.55	70.04	68.44	66.84	65.36	63.85
x1 = 0.0988	73.85	72.05	70.49	68.85	67.33	65.9	64.34	62.99	61.47	60.07
x1 = 0.158	68.68	67.21	65.57	64.22	62.78	61.26	59.91	58.6	57.29	55.97
x1 = 0.226	63.44	62	60.61	59.3	58.07	56.79	55.44	54.13	53.02	51.79
x1 = 0.305	58.11	56.92	55.69	54.58	53.43	52.28	51.18	49.99	48.92	47.94
x1 = 0.397	53.1	52.2	51.05	50.07	48.88	47.98	46.87	45.89	44.9	43.92
x1 = 0.506	48.72	47.77	46.83	45.89	44.99	44.12	43.18	42.28	41.38	40.52
x1 = 0.637	44.82	43.92	43.1	42.2	41.38	40.64	39.74	38.84	37.97	37.15
x1 = 0.798	41.05	40.39	39.41	38.67	37.85	37.11	36.29	35.39	34.82	34.08
x1 = 1	37.52	36.62	35.88	35.15	34.45	33.75	33.01	32.36	31.62	31.05
